Data on 17 molecules can be found in US10493060B2, “Spirocyclic compounds” (ZENO ROYALTIES & MILESTONES, LLC, priority 2015, dated 2019).

One test addresses Activated ERK1 (Homo sapiens (Human), UniProt P27361). The experiment in a line: Active ERK1 kinase assay (Mobility Shift Assay). The class given is biochemical. The protocol: (§1) Activated ERK1 and ERK2 activity was determined in a Mobility Shift Assay (MSA) format as follows: Compound and kinase solution were prepared with assay buffer (20 mM HEPES, 0.01% Triton X-100, 2 mM DTT, pH7.5) and mixed and incubated in for 30 mins at rt. ERK1 & ERK2 were then activated by the addition of Fl-Substrate, ATP and metal solution and incubated for 1 h at rt. After 1 h, the reaction was terminated by the addition of […] of Termination Buffer (QuickScout Screening Assist MSA; Carna Biosciences) to the well. The reaction mixture was applied to LabChip™ system (PerkinElmer), and the product and substrate peptide peaks were separated, analyzed and quantitated. The kinase reaction is evaluated by the product ratio calculated from peak heights of product (P) and substrate (S) peptides (P/(P+S)).

The target in another test is Activated ERK2 (Homo sapiens (Human), UniProt P28482). The experiment in a line: Active ERK2 kinase assay (Mobility Shift Assay). The format is biochemical. As for the experimental part:
as §1

The test system of the next test is A375 (melanoma) cells. The experiment in a line: Proliferation assay (CellTiter-Glo), A375. Particulars: Homo sapiens, A-375, 72 h, 3 days. The format is cell-based. As for the experimental part: (§2) A375 (melanoma), Colo-205 (colon cancer), Miapaca (pancreatic), HPAFII (pancreatic), sNF02.0 (neurofibromatosis type 1), sNF96.2 (neurofibromatosis type 1) and 8505 (Thyroid) cells were grown and maintained in RPMI-1640 medium containing 100 U/mL penicillin-streptomycin and 10% fetal bovine serum. Cells were in growth medium in 96-well opaque-walled clear bottom plates and incubated the in the CO2 incubator overnight before treatment. Cells were treated with compounds diluted in DMSO and a 10 point 3-fold serial dilutions were done. Plates were placed in 37° C., 5% CO2 for to incubate for 3 days. Before they were developed by adding 100 μL of CellTiter-Glo reagent (Promega) to the assay plate, plates were shaken briefly for 2 mins and allowed to incubate at rt for 10 mins. The bottom of the plates was pasted with white back seal and luminescence was recorded with Flexstation3 with setting of luminescence, integration time 500 ms.

For test [1], the system named is Colo-205 (colon cancer) cells. The experiment in a line: Proliferation assay (CellTiter-Glo), Colo-205. Particulars: Homo sapiens, COLO 205, 72 h, Colo205 cells, 3 days. The format is cell-based. As for the experimental part:
as §2
In general terms: Cellular ATP, detected with luciferase, serves as a proxy for viable cell number.

A value given as a limit tells only on which side of the number the result lay.

Activated ERK2, sequence (P28482 whole entry): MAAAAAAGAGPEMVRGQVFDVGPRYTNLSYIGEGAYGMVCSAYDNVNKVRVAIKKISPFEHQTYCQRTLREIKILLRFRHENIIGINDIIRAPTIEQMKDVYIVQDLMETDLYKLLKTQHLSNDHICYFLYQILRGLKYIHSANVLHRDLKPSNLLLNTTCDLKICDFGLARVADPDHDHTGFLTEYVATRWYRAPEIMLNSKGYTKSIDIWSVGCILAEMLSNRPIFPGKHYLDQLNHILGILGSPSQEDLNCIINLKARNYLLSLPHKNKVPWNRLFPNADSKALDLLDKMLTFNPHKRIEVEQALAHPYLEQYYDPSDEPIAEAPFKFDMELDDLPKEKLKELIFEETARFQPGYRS
Activated ERK1, sequence (P27361 whole entry): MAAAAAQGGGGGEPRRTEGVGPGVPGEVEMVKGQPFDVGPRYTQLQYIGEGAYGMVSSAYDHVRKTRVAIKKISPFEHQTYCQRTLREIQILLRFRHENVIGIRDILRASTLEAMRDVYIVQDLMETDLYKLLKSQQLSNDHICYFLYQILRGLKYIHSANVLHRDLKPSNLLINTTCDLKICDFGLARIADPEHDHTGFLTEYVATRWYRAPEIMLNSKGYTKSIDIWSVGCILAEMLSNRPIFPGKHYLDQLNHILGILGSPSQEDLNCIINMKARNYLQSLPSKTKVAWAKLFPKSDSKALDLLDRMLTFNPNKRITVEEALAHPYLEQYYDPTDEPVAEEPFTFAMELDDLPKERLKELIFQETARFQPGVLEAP

By IC50 is commonly meant the point on the concentration scale where inhibition reaches its midpoint. For `Cc1ccc(-c2n[nH]c3ccc(N4CCC5(CCN(CC(=O)N6CC=C(c7ccc(-c8ncn(C)n8)cc7)CC6)C5)C4=O)cc23)cn1` (stereo not shown) [Example 7, 7-(2-(4-(4-(1-Methyl-1H-1,2,4-triazol-3-yl)phenyl)-3,6-dihydropyridin-1(2H)-yl)-2-oxoethyl)-2-(3-(6-methylpyridin-3-yl)-1H-indazol-5-yl)-2,7-diazaspiro[4.4]nonan-1-one], the IC50 at Activated ERK1 was at most 50 nM; on Activated ERK2, at most 50 nM; in the test on A375 (melanoma) cells, at most 500 nM; in test [1] it was at most 500 nM.
Regarding `Cn1cnc(-c2ccc(C3=CCN(C(=O)CN4CC[C@]5(CCN(c6ccc7[nH]nc(C8CCNC(C(F)(F)F)C8)c7c6)C5=O)C4)CC3)cc2)n1` (stereo partly drawn) [Example 12, (5S)-7-(2-(4-(4-(1-Methyl-1H-1,2,4-triazol-3-yl)phenyl)-3,6-dihydropyridin-1(2H)-yl)-2-oxoethyl)-2-(3-(2-(trifluoromethyl)piperidin-4-yl)-1H-indazol-5-yl)-2,7-diazaspiro[4.4]nonan-1-one], the IC50 was at most 50 nM at Activated ERK1, at most 50 nM at Activated ERK2, 500 to 1000 nM in the test on A375 (melanoma) cells and at most 500 nM in test [1].
For `CC(C)Oc1ccc(-c2n[nH]c3ccc(N4CC[C@]5(CCN(CC(=O)N6CC=C(c7ccc(-c8cn(C)nn8)cc7)CC6)C5)C4=O)cc23)cn1` [Example 15, (S)-2-(3-(6-isopropoxypyridin-3-yl)-1H-indazol-5-yl)-7-(2-(4-(4-(1-methyl-1H-1,2,3-triazol-4-yl)phenyl)-3,6-dihydropyridin-1 (2H)-yl)-2-oxoethyl)-2,7-diazaspiro[4.4]nonan-1-one], the IC50 on Activated ERK1 was at most 50 nM; on Activated ERK2 it was at most 50 nM; in the test with A375 (melanoma) cells, at most 500 nM; in test [1], at most 500 nM.
Turning to `Cc1nnc(-c2ccc(C3=CCN(C(=O)CN4CC[C@]5(CCN(c6ccc7[nH]nc(-c8ccc(OC(C)C)nc8)c7c6)C5=O)C4)CC3)cc2)o1` [Example 17, (S)-2-(3-(6-Isopropoxypyridin-3-yl)-1H-indazol-5-yl)-7-(2-(4-(4-(5-methyl-1,3,4-oxadiazol-2-yl)phenyl)-3,6-dihydropyridin-1(2H)-yl)-2-oxoethyl)-2,7-diazaspiro[4.4]nonan-1-one], the IC50 is at most 50 nM on Activated ERK1, at most 50 nM at Activated ERK2, at most 500 nM with A375 (melanoma) cells and at most 500 nM in test [1].
For `CCNc1nnc(-c2ccc(C3=CCN(C(=O)CN4CC[C@]5(CCN(c6ccc7[nH]nc(-c8ccc(OC(C)C)nc8)c7c6)C5=O)C4)CC3)cc2)o1` [Example 18, (S)-7-(2-(4-(4-(5-(Ethylamino)-1,3,4-oxadiazol-2-yl)phenyl)-3,6-dihydropyridin-1(2H)-yl)-2-oxoethyl)-2-(3-(6-isopropoxypyridin-3-yl)-1H-indazol-5-yl)-2,7-diazaspiro[4.4]nonan-1-one], the IC50 at Activated ERK1 was at most 50 nM; at Activated ERK2 it was at most 50 nM; in the test with A375 (melanoma) cells it was at most 500 nM; in test [1], at most 500 nM.
As to `CC(C)Oc1ccc(-c2n[nH]c3ccc(N4CC[C@]5(CCN(CC(=O)N6CC=C(c7ccc(-c8ncccn8)cc7)CC6)C5)C4=O)cc23)cn1` [Example 22, (S)-2-(3-(6-Isopropoxypyridin-3-yl)-1H-indazol-5-yl)-7-(2-oxo-2-(4-(4-(pyrimidin-2-yl)phenyl)-3,6-dihydropyridin-1(2H)-yl)ethyl)-2,7-diazaspiro[4.4]nonan-1-one], the IC50 on Activated ERK1 is at most 50 nM; at Activated ERK2 it was at most 50 nM; in the test with A375 (melanoma) cells, at most 500 nM.
On to `CC(C)Oc1ccc(-c2n[nH]c3ccc(N4CC[C@]5(CCN(CC(=O)N6CC=C(c7ccc(-c8ncc(F)cn8)cc7)CC6)C5)C4=O)cc23)cn1` [Example 23, (S)-7-(2-(4-(4-(5-Fluoropyrimidin-2-yl)phenyl)-3,6-dihydropyridin-1(2H)-yl)-2-oxoethyl)-2-(3-(6-isopropoxypyridin-3-yl)-1H-indazol-5-yl)-2,7-diazaspiro[4.4]nonan-1-one], for which the concentration for half-maximal inhibition (IC50) on Activated ERK1 was at most 50 nM; on Activated ERK2, at most 50 nM; in the test on A375 (melanoma) cells, 500 to 1000 nM.
On to `CC(C)Oc1ccc(-c2n[nH]c3ccc(N4CC[C@]5(CCN(CC(=O)N6CCC(C78CC(c9ncn(C)n9)(C7)C8)CC6)C5)C4=O)cc23)cn1` [Example 24, (S)-2-(3-(6-Isopropoxypyridin-3-yl)-1H-indazol-5-yl)-7-(2-(4-(3-(1-methyl-1H-1,2,4-triazol-3-yl)bicyclo[1.1.1]pentan-1-yl)piperidin-1-yl)-2-oxoethyl)-2,7-diazaspiro[4.4]nonan-1-one], for which the IC50 on Activated ERK1 was 50 to 250 nM; on Activated ERK2 it was at most 50 nM; with A375 (melanoma) cells, at least 1000 nM.
Take `CC(C)Oc1ccc(-c2n[nH]c3ccc(N4CC[C@]5(CCN(CC(=O)N6CC=C(c7ccc(-c8ncccn8)cn7)CC6)C5)C4=O)cc23)cn1` [Example 25, (S)-2-(3-(6-Isopropoxypyridin-3-yl)-1H-indazol-5-yl)-7-(2-oxo-2-(5-(pyrimidin-2-yl)-3′,6′-dihydro-[2,4′-bipyridin]-1′(2′H)-yl)ethyl)-2,7-diazaspiro[4.4]nonan-1-one]: the IC50 was at least 250 nM on Activated ERK1, 50 to 250 nM at Activated ERK2 and at least 1000 nM in the test with A375 (melanoma) cells.
Regarding `CC(C)Oc1ccc(-c2n[nH]c3ccc(N4CC[C@]5(CCN(CC(=O)N6CCC(F)(c7ccc(-c8ncn(C)n8)cc7)CC6)C5)C4=O)cc23)cn1` [Example 27], the results for the IC50 on Activated ERK1, on Activated ERK2 and with A375 (melanoma) cells were at least 250 nM, at least 250 nM and at least 1000 nM, respectively.
For the molecule `O=C(CN1CC[C@]2(CCN(c3ccc4[nH]nc(-c5ccnc(C(F)(F)F)c5)c4c3)C2=O)C1)N1CC=C(c2ccc(-c3ncc(F)cn3)cc2)CC1` [Example 28, (S)-7-(2-(4-(4-(5-Fluoropyrimidin-2-yl)phenyl)-3,6-dihydropyridin-1(2H)-yl)-2-oxoethyl)-2-(3-(2-(trifluoromethyl)pyridin-4-yl)-1H-indazol-5-yl)-2,7-diazaspiro[4.4]nonan-1-one], the 50% inhibitory concentration (IC50) at Activated ERK1 was at most 50 nM; at Activated ERK2, at most 50 nM; in the test with A375 (melanoma) cells, at most 500 nM.
Consider `CC(C)Oc1cc(-c2n[nH]c3ccc(N4CC[C@]5(CCN(CC(=O)N6CC=C(c7ccc(-c8ncn(C)n8)cc7)CC6)C5)C4=O)cc23)ccn1` [Example 30, (S)-2-(3-(2-Isopropoxypyridin-4-yl)-1H-indazol-5-yl)-7-(2-(4-(4-(1-methyl-1H-1,2,4-triazol-3-yl)phenyl)-3,6-dihydropyridin-1(2H)-yl)-2-oxoethyl)-2,7-diazaspiro[4.4]nonan-1-one], for which the IC50 at Activated ERK1 is at most 50 nM; on Activated ERK2 it was at most 50 nM; with A375 (melanoma) cells, at most 500 nM.
On to `Cn1cnc(-c2ccc(C3=CCN(C(=O)CN4CC[C@]5(CCN(c6ccc7[nH]nc(-c8ccncc8F)c7c6)C5=O)C4)CC3)cc2)n1` [Example 31, (S)-2-(3-(3-Fluoropyridin-4-yl)-1H-indazol-5-yl)-7-(2-(4-(4-(1-methyl-1H-1,2,4-triazol-3-yl)phenyl)-3,6-dihydropyridin-1(2H)-yl)-2-oxoethyl)-2,7-diazaspiro[4.4]nonan-1-one], for which the IC50 at Activated ERK1 is at most 50 nM; at Activated ERK2, at most 50 nM; in the test with A375 (melanoma) cells, at most 500 nM.
With `Cn1cc(-c2ccc(C3=CCN(C(=O)CN4CC[C@]5(CCN(c6ccc7[nH]nc(-c8ccnc(C(F)(F)F)c8)c7c6)C5=O)C4)CC3)cc2)nn1` [Example 41, (S)-7-(2-(4-(4-(1-methyl-1H-1,2,3-triazol-4-yl)phenyl)-3,6-dihydropyridin-1 (2H)-yl)-2-oxoethyl)-2-(3-(2-(trifluoromethyl)pyridin-4-yl)-1H-indazol-5-yl)-2,7-diazaspiro[4.4]nonan-1-one], the IC50 is at most 50 nM on Activated ERK2 and at most 500 nM in the test on A375 (melanoma) cells.
As for `Cc1nnc(-c2ccc(C3=CCN(C(=O)CN4CC[C@]5(CCN(c6ccc7[nH]nc(-c8ccnc(C(F)(F)F)c8)c7c6)C5=O)C4)CC3)cc2)o1` [Example 42, (S)-7-(2-(4-(4-(5-Methyl-1,3,4-oxadiazol-2-yl)phenyl)-3,6-dihydropyridin-1 (2H)-yl)-2-oxoethyl)-2-(3-(2-(trifluoromethyl)pyridin-4-yl)-1H-indazol-5-yl)-2,7-diazaspiro[4.4]nonan-1-one], the IC50 is at most 50 nM at Activated ERK2 and at most 500 nM with A375 (melanoma) cells.
In the case of `Cc1noc(-c2ccc(C3=CCN(C(=O)CN4CC[C@]5(CCN(c6ccc7[nH]nc(-c8ccnc(C(F)(F)F)c8)c7c6)C5=O)C4)CC3)cc2)n1` [Example 43, (S)-7-(2-(4-(4-(3-methyl-1,2,4-oxadiazol-5-yl)phenyl)-3,6-dihydropyridin-1(2H)-yl)-2-oxoethyl)-2-(3-(2-(trifluoromethyl)pyridin-4-yl)-1H-indazol-5-yl)-2,7-diazaspiro[4.4]nonan-1-one], the IC50 was at most 50 nM on Activated ERK2 and at least 1000 nM with A375 (melanoma) cells.
As to `Cn1nccc1Nc1nccc(-c2ccn([C@H](CO)c3ccc(Cl)c(F)c3)c(=O)c2)n1` [GDC-0994], the IC50 in the test on A375 (melanoma) cells was 500 to 1000 nM; in test [1], at most 500 nM.
